Assays:
Assay type in all cases: in vivo
Matricaria inodora = experiment: Herbicidal effect post-emergence, MATIN
Method: (§1) Seeds of mono- and dicotyledonous weed plants and crop plants are planted in wood-fiber pots in sandy loam, covered with earth and grown in a greenhouse under good growth conditions. 2 to 3 weeks after sowing, the test plants are treated in the single-leaf stage. The compounds according to the invention, formulated in the form of wettable powders (WP) or as emulsion concentrates (EC), are then sprayed onto the green plant parts as aqueous suspension or emulsion using an application rate of 600 to 800 l of water/ha (converted) with the addition of 0.2% by weight of wetting agent. After the test plants had been in the greenhouse for ca. 3 weeks under optimum growth conditions, the effect of the preparations is scored visually in comparison with untreated controls (herbicidal effect in percent (%): 100% effect=plants have died off, 0% effect=as control plants).

Veronica persica [1] = experiment: Herbicidal effect post-emergence, VERPE
Method: as §1

Abutilon theophrasti [2] = experiment: Herbicidal effect post-emergence, ABUTH
Method: as §1

Amaranthus retroflexus [3] = experiment: Herbicidal effect post-emergence, AMARE
Method: as §1

Echinochloa crus-galli = experiment: Herbicidal effect post-emergence, ECHCG
Method: as §1

Abutilon theophrasti [4] = experiment: Herbicidal effect pre-emergence, ABUTH; conditions: 320 g/hectare, visual grading after 3 weeks vs untreated controls
From the text: (§2) Seeds of mono- and dicotyledonous weed plants and crop plants are planted in wood-fiber pots in sandy loam and covered with earth. The compounds according to the invention, formulated in the form of wettable powders (WP) or as emulsion concentrates (EC), are then applied to the surface of the covering earth as aqueous suspension or emulsion at an application rate corresponding to 320 g/hectare at an application rate of 600 to 800 l of water/ha (converted) with the addition of 0.2% wetting agent.
(§3) Following treatment, the pots are placed in a greenhouse and kept under good growth conditions for the test plants. The visual grading of the damage to the test plants is carried out after a test time of 3 weeks in comparison to untreated controls (herbicidal effect in percent (%): 100% effect=plants have died off, 0% effect=as control plants).

Amaranthus retroflexus [5] = experiment: Herbicidal effect pre-emergence, AMARE; conditions: 320 g/hectare, visual grading after 3 weeks vs untreated controls
From the text: as §2, §3

Veronica persica [6] = experiment: Herbicidal effect pre-emergence, VERPE; conditions: 320 g/hectare, visual grading after 3 weeks vs untreated controls
From the text: as §2, §3

[7] = tested on: Polygonum (Fallopia) convolvulus; experiment: Herbicidal effect post-emergence, POLCO
Method: as §1

Ipomoea purpurea = experiment: Herbicidal effect post-emergence, PHBPU
Method: as §1

Setaria viridis [8] = experiment: Herbicidal effect post-emergence, SETVI
Method: as §1

Viola tricolor [9] = experiment: Herbicidal effect post-emergence, VIOTR
Method: as §1

Stellaria media = experiment: Herbicidal effect post-emergence, STEME
Method: as §1

Setaria viridis [10] = experiment: Herbicidal effect pre-emergence, SETVI; conditions: 320 g/hectare, visual grading after 3 weeks vs untreated controls
From the text: as §2, §3

[11] = tested on: Tripleurospermum inodorum; experiment: Herbicidal effect pre-emergence, MATIN; conditions: 320 g/hectare, visual grading after 3 weeks vs untreated controls
From the text: as §2, §3

Viola tricolor [12] = experiment: Herbicidal effect pre-emergence, VIOTR; conditions: 320 g/hectare, visual grading after 3 weeks vs untreated controls
From the text: as §2, §3

Alopecurus myosuroides = experiment: Herbicidal effect pre-emergence, ALOMY; conditions: 320 g/hectare, visual grading after 3 weeks vs untreated controls
From the text: as §2, §3

Row | Compound | Effect in % in respect of stated plant, MATIN (Matricaria inodora) [%] | Effect in % in respect of stated plant, VERPE (Veronica persica [1]) [%] | Effect in % in respect of stated plant, ABUTH (Abutilon theophrasti [2]) [%] | Effect in % in respect of stated plant, AMARE (Amaranthus retroflexus [3]) [%] | Effect in % in respect of stated plant, ECHCG (Echinochloa crus-galli) [%] | Effect in % in respect of stated plant, ABUTH (Abutilon theophrasti [4]) [%] | Effect in % in respect of stated plant, AMARE (Amaranthus retroflexus [5]) [%] | Effect in % in respect of stated plant, VERPE (Veronica persica [6]) [%] | Effect in % in respect of stated plant, POLCO [7] [%] | Effect in % in respect of stated plant, PHBPU (Ipomoea purpurea) [%] | Effect in % in respect of stated plant, SETVI (Setaria viridis [8]) [%] | Effect in % in respect of stated plant, VIOTR (Viola tricolor [9]) [%] | Effect in % in respect of stated plant, STEME (Stellaria media) [%] | Effect in % in respect of stated plant, SETVI (Setaria viridis [10]) [%] | Effect in % in respect of stated plant, MATIN [11] [%] | Effect in % in respect of stated plant, VIOTR (Viola tricolor [12]) [%] | Effect in % in respect of stated plant, ALOMY (Alopecurus myosuroides) [%]
1 | Cc1ccc(-c2nc(N)c(Cl)c(C(C#N)C#N)n2)cc1.N [Compound 296] | 90 | 90 | 80 | 90 | 80 | 80 | 100 | 100 | – | – | – | – | – | – | – | – | –
2 | CNC.N#CC(C#N)c1nc(-c2ccc(Cl)cc2)nc(N)c1Cl [Compound 310] | 85 | 87 | 85 | 95 | 90 | – | 100 | 100 | 85 | 80 | 80 | 90 | 80 | 90 | 80 | 100 | –
3 | CN(C)C.N#CC(C#N)c1nc(-c2ccc(Cl)cc2)nc(N)c1Cl [Compound 311] | 90 | 90 | 90 | 90 | 90 | 80 | 100 | 100 | 90 | – | 80 | 80 | 80 | 90 | 90 | 100 | –
4 | C[N+](C)(C)C.N#C[C-](C#N)c1nc(-c2ccc(Cl)cc2)nc(N)c1Cl [Compound 312] | 90 | 95 | 85 | 90 | 85 | – | 95 | 100 | 90 | – | 90 | 80 | 80 | 90 | – | 100 | –
5 | N.N#CC(C#N)c1nc(-c2ccc(Cl)c(C(F)(F)F)c2)nc(N)c1Cl [Compound 335] | 80 | – | – | 80 | – | – | – | 100 | – | – | – | – | – | – | 80 | 80 | –
6 | N.N#CC(C#N)c1nc(-c2ccc(Cl)cc2F)nc(N)c1Cl [Compound 345] | 90 | 90 | – | 100 | – | 90 | 90 | 100 | 80 | 90 | – | 80 | 90 | 80 | 80 | 80 | 80
7 | Cc1ccc(-c2nc(N)c(Cl)c(C(C#N)C#N)n2)c(F)c1F.N [Compound 387] | – | 80 | 90 | 100 | 90 | – | – | 100 | 100 | – | – | – | – | – | – | – | 80
8 | CNc1nc(-c2ccc(Cl)cc2)nc(C(C#N)C#N)c1Cl [Ex. No. 41, [5-Chloro-2-(4-chlorophenyl)-6-(methylamino)pyrimidin-4-yl]propanedinitrile] | – | – | – | – | – | – | – | – | – | – | – | – | – | – | 80 | 100 | –

From patent US8309557B2, “Pyrimidin-4-ylpropanedinitrile derivatives, processes for their preparation and their use as herbicides and plant growth regulators” (Bayer Intellectual Property GmbH, priority 2009, dated 2012)
